ChEMBL document CHEMBL1201862, “PubChem BioAssay data set” (2004)
Calls of active or inactive are those of the source.

What was measured:
INS1 = assay: beta-cell survival under cytokine stress – INS-1E, ATP luminescence, dry powder, dose response (AID 488844); assay type: functional, cell-based; details: Rattus norvegicus
[1] = target: UDP-galactopyranose mutase (Mycobacterium tuberculosis, UniProt P9WIQ1); assay: Inhibitors of Mycobacterium tuberculosis UDP-galactopyranose mutase (UGM) enzyme Measured in Biochemical System Using Plate Reader - 2105-02_Inhibitor_Dose_CherryPick_Activity. [Related pubchem assays (depositor defined):AID504439]
Hexokinase-1 = Hexokinase-1 (Homo sapiens, UniProt P19367); assay: hexokinase 1 activity inhibitors, potency – biochemical, set 2, resazurin fluorescence coupled readout, selectivity assay for HKDC1 inhibitor project, SAR follow-up (AID 588356); assay type: functional
Hexokinase HKDC1 = target: T1, Hexokinase HKDC1 (Homo sapiens, UniProt Q2TB90); assay: analog inhibition of human HKDC1 activity – biochemical, set 2, SAR follow-up (AID 588355); assay type: functional
T1 sequence (Q2TB90 whole entry): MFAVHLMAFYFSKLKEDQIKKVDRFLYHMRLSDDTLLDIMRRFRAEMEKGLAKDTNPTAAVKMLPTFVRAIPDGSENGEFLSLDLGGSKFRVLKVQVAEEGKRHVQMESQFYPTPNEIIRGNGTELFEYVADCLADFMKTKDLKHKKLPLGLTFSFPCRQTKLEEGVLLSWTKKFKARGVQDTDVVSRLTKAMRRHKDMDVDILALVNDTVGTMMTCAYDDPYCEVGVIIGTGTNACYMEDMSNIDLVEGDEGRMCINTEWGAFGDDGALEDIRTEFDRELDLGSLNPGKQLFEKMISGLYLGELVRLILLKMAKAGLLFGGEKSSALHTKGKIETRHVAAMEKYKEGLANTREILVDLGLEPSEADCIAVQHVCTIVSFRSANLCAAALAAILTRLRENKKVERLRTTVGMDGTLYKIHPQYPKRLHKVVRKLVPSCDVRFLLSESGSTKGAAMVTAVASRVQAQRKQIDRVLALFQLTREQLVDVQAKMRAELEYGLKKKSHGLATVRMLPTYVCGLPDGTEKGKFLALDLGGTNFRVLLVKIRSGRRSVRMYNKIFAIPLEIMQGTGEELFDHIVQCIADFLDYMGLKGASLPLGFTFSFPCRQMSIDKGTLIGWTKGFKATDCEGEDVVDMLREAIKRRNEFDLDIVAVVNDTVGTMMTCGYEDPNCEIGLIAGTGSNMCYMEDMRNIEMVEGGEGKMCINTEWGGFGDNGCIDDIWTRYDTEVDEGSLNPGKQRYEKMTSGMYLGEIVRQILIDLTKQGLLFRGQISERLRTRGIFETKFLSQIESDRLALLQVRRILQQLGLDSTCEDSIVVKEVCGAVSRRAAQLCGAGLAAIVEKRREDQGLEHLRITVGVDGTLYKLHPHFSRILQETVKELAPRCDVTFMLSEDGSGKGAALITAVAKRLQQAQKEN

Albumin = Albumin (Bos taurus, UniProt P02769); assay: Counterscreen for inhibitors of T-cell receptor (TCR)-CD3 interaction: Fluorescence-based biochemical high throughput dose response assay to identify inhibitors of T-cell receptor (TCR)-CD3 interaction using a TAMRA-labeled BSA probe.; assay type: functional
Vero = assay: viability of Vero cells under compound – cytotoxicity control for flavivirus capping enzyme inhibitors (AID 588742); assay type: functional; details: Chlorocebus sabaeus
[2] = rescue of ΔF508 CFTR function, airway epithelium – human bronchial epithelial cells, plate reader, cherry-pick, two tests, dose response (AID 743267); assay type: functional, cell-based
[3] = target: T2, Tyrosyl-DNA phosphodiesterase 2 (Homo sapiens, UniProt O95551); assay: potency against TDP2 phosphodiesterase activity – biochemical, epi absorbance, IC50, dose response (AID 743297)
T2 sequence (O95551 whole entry): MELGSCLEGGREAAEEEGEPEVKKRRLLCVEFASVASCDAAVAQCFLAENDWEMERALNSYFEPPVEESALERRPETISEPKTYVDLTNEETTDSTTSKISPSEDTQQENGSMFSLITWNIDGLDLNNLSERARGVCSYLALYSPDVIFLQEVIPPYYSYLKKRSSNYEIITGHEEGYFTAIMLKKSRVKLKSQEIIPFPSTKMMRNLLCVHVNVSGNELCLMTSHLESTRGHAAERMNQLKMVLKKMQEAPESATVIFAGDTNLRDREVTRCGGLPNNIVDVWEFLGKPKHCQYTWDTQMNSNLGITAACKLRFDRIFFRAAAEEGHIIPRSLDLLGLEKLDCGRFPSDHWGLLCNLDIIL

Genome polyprotein = Genome polyprotein (dengue virus type 2, UniProt P29990); assay: flavivirus cap methylation enzyme inhibition – biochemical, confirmation dose response, primary screen (AID 588689); assay type: functional
[4] = target: Glucose-6-phosphate 1-dehydrogenase (Homo sapiens, UniProt P11413); assay: inhibition of Homo sapiens G6PD, dose series – biochemical, fluorescence, selectivity assay for P. falciparum G6PD inhibitor project, dose response (AID 504792); assay type: functional
HEK293 [5] = assay: HEK293T cell viability loss, resazurin readout – resazurin fluorescence, cytotoxicity control for NF-kB activator project, SAR follow-up (AID 493251); assay type: functional, cell-based; details: Homo sapiens
Jurkat = assay: SAR Analysis of small molecule inhibitors of […] specific antigen receptor-induced NF-kB activation in a Jurkat cell line using a luminescence assay - Set 3. [Related pubchem assays (depositor defined):AID435022, AID435025, AID465]; assay type: functional, cell-based; details: Homo sapiens
HEK293 [6] = assay: SAR Analysis of small molecule inhibitors of B-cell specific antigen receptor-induced NF-kB activation in a HEK-293T cell line using a luminescence assay - Set 2. [Related pubchem assays (depositor defined):AID435022, AID435025, AID489021]; assay type: functional, cell-based; details: Homo sapiens
Phospholipase D2 = Phospholipase D2 (Homo sapiens, UniProt O14939); assay: cellular phospholipase D2 inhibition IC50 – cell-based, dose response (AID 602147); assay type: functional;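 note: cellular assay in HEK293 cells overexpressing GFP-tagged PLD2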
Phospholipase D1 = Phospholipase D1 (Homo sapiens, UniProt Q13393); assay: cellular phospholipase D1 inhibition IC50 – cell-based, dose response (AID 602151); assay type: functional;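 note: cellular PLD1 assay in Calu-1 cells stimulated with PMA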
Phospholipase D1, sequence (Q13393 whole entry): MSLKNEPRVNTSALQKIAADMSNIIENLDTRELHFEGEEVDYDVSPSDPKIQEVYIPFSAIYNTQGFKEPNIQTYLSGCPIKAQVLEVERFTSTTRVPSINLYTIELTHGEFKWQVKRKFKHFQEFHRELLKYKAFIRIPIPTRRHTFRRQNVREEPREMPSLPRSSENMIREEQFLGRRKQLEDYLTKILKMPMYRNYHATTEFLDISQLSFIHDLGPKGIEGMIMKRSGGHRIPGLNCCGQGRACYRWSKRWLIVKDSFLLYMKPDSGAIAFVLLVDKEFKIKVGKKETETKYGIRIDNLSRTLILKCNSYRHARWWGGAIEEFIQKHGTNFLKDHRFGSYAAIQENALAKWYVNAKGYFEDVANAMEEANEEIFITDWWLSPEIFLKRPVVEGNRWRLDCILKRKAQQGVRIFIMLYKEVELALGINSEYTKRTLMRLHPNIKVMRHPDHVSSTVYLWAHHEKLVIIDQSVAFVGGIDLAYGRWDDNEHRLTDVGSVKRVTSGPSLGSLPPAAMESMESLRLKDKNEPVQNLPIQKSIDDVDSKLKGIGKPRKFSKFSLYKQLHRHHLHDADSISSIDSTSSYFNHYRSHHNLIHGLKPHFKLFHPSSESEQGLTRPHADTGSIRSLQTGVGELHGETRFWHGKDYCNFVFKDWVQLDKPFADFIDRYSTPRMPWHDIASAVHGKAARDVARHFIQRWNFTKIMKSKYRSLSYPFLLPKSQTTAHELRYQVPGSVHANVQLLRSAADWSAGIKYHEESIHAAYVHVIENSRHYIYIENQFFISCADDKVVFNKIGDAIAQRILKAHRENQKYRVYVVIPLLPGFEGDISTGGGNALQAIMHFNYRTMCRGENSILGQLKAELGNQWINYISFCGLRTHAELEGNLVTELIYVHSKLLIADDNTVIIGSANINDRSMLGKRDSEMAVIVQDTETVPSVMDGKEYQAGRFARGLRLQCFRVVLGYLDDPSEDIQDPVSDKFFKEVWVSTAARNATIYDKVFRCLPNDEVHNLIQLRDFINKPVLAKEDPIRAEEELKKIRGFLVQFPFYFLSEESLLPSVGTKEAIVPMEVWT

UDP-galactopyranose mutase, sequence (P9WIQ1 whole entry): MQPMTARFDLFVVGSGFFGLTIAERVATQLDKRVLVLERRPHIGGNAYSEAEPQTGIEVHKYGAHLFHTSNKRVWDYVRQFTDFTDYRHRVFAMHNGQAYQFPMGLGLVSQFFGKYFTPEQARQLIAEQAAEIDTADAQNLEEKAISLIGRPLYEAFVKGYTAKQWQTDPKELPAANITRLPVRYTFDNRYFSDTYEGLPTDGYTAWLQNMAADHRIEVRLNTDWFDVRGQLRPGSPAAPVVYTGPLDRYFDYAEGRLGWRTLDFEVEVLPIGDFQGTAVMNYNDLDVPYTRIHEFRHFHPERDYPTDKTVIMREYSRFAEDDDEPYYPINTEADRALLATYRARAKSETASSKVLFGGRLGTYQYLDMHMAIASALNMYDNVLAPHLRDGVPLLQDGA
Albumin, sequence (P02769 whole entry): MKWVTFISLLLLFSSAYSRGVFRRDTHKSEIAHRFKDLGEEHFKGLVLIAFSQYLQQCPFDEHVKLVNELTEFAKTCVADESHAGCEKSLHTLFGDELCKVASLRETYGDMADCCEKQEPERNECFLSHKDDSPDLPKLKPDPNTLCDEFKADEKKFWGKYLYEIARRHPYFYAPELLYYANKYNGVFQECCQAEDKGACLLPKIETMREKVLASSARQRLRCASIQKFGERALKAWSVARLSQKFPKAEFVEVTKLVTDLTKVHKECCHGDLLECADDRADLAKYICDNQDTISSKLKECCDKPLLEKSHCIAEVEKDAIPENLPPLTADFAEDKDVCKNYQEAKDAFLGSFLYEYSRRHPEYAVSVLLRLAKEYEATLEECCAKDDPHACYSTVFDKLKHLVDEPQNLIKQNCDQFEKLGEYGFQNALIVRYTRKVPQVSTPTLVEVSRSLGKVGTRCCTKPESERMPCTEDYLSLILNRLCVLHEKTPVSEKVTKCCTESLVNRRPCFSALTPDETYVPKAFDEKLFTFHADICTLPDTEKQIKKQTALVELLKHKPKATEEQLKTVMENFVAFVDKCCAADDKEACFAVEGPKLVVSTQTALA
Hexokinase-1, sequence (P19367 whole entry): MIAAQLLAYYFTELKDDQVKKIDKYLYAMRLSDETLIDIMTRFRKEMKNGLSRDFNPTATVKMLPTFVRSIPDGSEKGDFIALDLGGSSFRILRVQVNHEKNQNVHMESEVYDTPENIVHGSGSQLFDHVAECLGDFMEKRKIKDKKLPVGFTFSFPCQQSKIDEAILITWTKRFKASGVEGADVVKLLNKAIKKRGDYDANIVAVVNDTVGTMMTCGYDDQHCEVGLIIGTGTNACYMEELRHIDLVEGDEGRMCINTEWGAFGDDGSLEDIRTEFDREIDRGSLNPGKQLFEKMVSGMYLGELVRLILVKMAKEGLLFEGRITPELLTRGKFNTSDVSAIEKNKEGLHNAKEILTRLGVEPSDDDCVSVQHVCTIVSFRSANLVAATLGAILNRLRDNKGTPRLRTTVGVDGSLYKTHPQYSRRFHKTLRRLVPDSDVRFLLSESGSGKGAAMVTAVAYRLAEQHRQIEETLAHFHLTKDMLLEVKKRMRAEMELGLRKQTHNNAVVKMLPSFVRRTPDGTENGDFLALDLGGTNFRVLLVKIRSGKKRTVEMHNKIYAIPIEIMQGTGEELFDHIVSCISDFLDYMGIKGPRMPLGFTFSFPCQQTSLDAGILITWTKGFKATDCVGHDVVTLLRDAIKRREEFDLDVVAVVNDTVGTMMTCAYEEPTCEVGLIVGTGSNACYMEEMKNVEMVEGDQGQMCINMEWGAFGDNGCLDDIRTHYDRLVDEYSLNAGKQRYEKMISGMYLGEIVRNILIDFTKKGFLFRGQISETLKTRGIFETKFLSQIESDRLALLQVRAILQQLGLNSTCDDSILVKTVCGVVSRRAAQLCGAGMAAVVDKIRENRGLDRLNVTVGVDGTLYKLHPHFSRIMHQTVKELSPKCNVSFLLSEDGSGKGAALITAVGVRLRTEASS
Phospholipase D2, sequence (O14939 whole entry): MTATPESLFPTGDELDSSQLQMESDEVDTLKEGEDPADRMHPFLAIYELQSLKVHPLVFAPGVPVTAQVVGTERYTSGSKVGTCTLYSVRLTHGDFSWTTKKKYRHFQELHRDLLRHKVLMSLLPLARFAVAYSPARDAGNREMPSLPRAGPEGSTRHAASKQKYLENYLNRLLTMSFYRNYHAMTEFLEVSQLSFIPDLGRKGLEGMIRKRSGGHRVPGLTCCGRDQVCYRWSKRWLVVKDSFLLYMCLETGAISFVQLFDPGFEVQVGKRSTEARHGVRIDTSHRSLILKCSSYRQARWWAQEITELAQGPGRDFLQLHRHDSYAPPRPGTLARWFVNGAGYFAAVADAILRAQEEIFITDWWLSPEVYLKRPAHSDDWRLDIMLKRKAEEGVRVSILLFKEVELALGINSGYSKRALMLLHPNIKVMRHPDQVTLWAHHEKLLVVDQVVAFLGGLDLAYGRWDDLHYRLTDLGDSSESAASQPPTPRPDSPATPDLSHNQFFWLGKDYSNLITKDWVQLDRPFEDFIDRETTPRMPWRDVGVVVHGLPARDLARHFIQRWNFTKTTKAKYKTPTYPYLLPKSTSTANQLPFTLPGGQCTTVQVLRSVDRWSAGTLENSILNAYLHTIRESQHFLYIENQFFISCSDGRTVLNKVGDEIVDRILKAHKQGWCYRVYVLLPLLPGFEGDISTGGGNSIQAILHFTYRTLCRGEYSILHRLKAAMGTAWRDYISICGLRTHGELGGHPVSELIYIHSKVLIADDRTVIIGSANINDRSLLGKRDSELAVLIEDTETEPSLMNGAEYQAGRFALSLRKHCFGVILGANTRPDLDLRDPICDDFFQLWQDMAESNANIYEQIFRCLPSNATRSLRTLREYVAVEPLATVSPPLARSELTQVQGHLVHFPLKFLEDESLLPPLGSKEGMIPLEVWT
Glucose-6-phosphate 1-dehydrogenase, sequence (P11413 whole entry): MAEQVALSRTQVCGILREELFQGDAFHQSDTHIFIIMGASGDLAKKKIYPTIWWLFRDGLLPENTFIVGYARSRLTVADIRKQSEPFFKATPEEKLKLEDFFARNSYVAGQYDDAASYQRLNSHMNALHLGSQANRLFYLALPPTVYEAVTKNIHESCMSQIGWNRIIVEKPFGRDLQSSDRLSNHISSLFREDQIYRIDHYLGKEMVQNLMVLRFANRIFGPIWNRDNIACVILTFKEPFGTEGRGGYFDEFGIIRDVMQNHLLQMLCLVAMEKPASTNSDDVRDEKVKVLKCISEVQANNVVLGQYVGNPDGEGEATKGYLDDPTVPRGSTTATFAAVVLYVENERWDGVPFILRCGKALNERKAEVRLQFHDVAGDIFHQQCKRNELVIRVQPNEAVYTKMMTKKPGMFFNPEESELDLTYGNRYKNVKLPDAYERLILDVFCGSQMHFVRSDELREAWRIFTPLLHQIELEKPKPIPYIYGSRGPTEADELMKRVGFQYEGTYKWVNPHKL

For `C[C@@H]1CN([C@@H](C)CO)C(=O)c2cccc(NC(=O)Nc3ccccc3)c2O[C@H]1CN(C)S(=O)(=O)c1ccc(F)cc1`, which AC50 (INS1) is on record?
Its AC50 is 61.3 µM (active).

Which AC50 [1] does the source give for `O=C1NC(c2cccs2)Nc2sc3c(c21)CCCC3` (stereo not given) here?
The AC50 was 129 µM (active).

Which IC50 (Hexokinase-1) does the source give for `CC(=O)NC1C(=O)N(CCN2CCOCC2)c2ccccc21` (stereo not given) here?
Its IC50 is > 80 µM (inactive).

And the IC50 (Hexokinase HKDC1)?
Its IC50 is > 80 µM (inactive).

Which IC50 (Albumin) does the source give for `O=C1C(=NCCc2cc(Br)c(O)c(Br)c2)C=C(O)c2cccnc21` here?
The IC50 was > 94.2 µM (inactive).

What about the CC50 (Vero) of the same compound?
The CC50 was 2.03 µM (active).

And the AC50 [2]?
Its AC50 is 3.33 µM (active).

What about the IC50 [3] of the same compound?
The IC50 was 5.04 µM (active).

What about the IC50 (Genome polyprotein) of the same compound?
The IC50 was 12.2 µM (active).

And the IC50 [4]?
The IC50 was 25.2 µM (inactive).

With `CCOc1ccc(-c2nc(CSCC(=O)NC3CCCC3)c(C)o2)cc1` as the compound, how does the IC50 (HEK293 [5]) read?
Its IC50 is 64.2 µM (inactive).

What about the IC50 (Jurkat) of the same compound?
Its IC50 is 37.6 µM (inactive).

What about the IC50 (HEK293 [6]) of the same compound?
Its IC50 is 26.4 µM (inactive).

Which results are given for `C[C@@H](CN1CCC2(CC1)C(=O)NCN2c1ccc(F)c(F)c1)NC(=O)c1cc2cc(F)ccc2[nH]1`?
IC50 (Phospholipase D2): 0.032 µM (active); IC50 (Phospholipase D1): 0.005 µM (active)
